How the values were obtained:
[1] = Stability of the compound; type: physicochemical
[2] = Solubility of the compound in aqueous buffer; type: physicochemical
[3] = Distribution coefficient, log D of the compound at pH 7.4; type: physicochemical; settings: octanol/water
[4] = Lipophilicity, log P of the compound; type: physicochemical; settings: octanol/water
[5] = Cmax in Sprague-Dawley rat at 10 mg/kg, po administered as single dose by ESI-LC-MS/MS method; type: ADME, organism-based; design: dose 10 mg/kg, route oral; settings: in vivo
[6] = Tmax in Sprague-Dawley rat at 10 mg/kg, po administered as single dose by ESI-LC-MS/MS method; type: ADME, organism-based; settings: in vivo
[7] = Plasma concentration in Sprague-Dawley rat at 10 mg/kg, po after 24 hrs administered as single dose by ESI-LC-MS/MS method; type: ADME, organism-based
[8] = Half life in Sprague-Dawley rat at 10 mg/kg, po administered as single dose by ESI-LC-MS/MS method; type: ADME, organism-based; settings: in vivo
[9] = Oral bioavailability in Sprague-Dawley rat at 10 mg/kg administered as single dose by ESI-LC-MS/MS method; type: ADME, organism-based; settings: in vivo
[10] = Ratio of AUC in Sprague-Dawley rat at 100 mg/kg, po administered as single dose by ESI-LC-MS/MS method to AUC in Sprague-Dawley rat at 10 mg/kg, po administered as single dose by ESI-LC-MS/MS method; type: ADME, organism-based; settings: in vivo
[11] = Ratio of Cmax in Sprague-Dawley rat at 100 mg/kg, po administered as single dose by ESI-LC-MS/MS method to Cmax in Sprague-Dawley rat at 10 mg/kg, po administered as single dose by ESI-LC-MS/MS method; type: ADME, organism-based; settings: in vivo
[12] = Ratio of AUC in Sprague-Dawley rat at 300 mg/kg, po administered as single dose by ESI-LC-MS/MS method to AUC in Sprague-Dawley rat at 100 mg/kg, po administered as single dose by ESI-LC-MS/MS method; type: ADME, organism-based; settings: in vivo
[13] = Tmax in Duroc Landrace pig at 3 mg/kg, po administered as single dose by ESI-LC-MS/MS method; type: ADME, organism-based, Sus scrofa; settings: in vivo
[14] = Half life in Duroc Landrace pig at 3 mg/kg, po administered as single dose by ESI-LC-MS/MS method; type: ADME, organism-based, Sus scrofa; settings: in vivo
[15] = Oral bioavailability in Duroc Landrace pig at 3 mg/kg administered as single dose by ESI-LC-MS/MS method; type: ADME, organism-based, Sus scrofa; settings: in vivo
[16] = Oral bioavailability in urethane-chloralose anesthetized pig at 3 mg/kg, id; type: ADME, organism-based, Sus scrofa; settings: in vivo
[17] = test system: Sus scrofa; test: Inhibition of upper airway collapsibility in urethane-chloralose anesthetized pig assessed as time duration for onset of action at 1 mg/kg, id after 4 hrs; type: functional
[18] = test system: Sus scrofa; test: Inhibition of upper airway collapsibility in urethane-chloralose anesthetized pig assessed as time duration for onset of action at 3 mg/kg, id after 4 hrs; type: functional
[19] = Toxicity in anesthetized mongrel dog assessed as induction of major hemodynamic changes at 10 mg/kg, iv; type: organism-based, Canis lupus familiaris; settings: in vivo
[20] = Toxicity in anesthetized mongrel dog assessed as induction of major electrophysiological changes at 10 mg/kg, iv; type: organism-based, Canis lupus familiaris; settings: in vivo

Stability [1]: Stable
solubility [2]: Soluble
logD [3]: 2.06
logP [4]: 2.05
Cmax [5]: 570 ng/mL
Tmax [6]: 1 h
concentration at 24 h [7]: < 1 ng/mL
half-life [8]: 2.7 h
bioavailability [9]: 42%
Ratio [10]: 2.3
Ratio [11]: 2.3
Ratio [12]: 1.1
Tmax [13]: 0.5 h
half-life [14]: 18 h
bioavailability [15]: 18 to 98%
bioavailability [16]: 61%
Structure (SMILES): Cc1nnc(C)n1-c1ccc(O[C@H]2c3cc(Cl)cc(Cl)c3C[C@@H]2N2CC[C@@H](O)C2)c(F)c1.O=P(O)(O)O
Time [17]: 1 h
Time [18]: 1.5 h
Activity [19]: Non-Toxic
Activity [20]: Non-Toxic

— ChEMBL document CHEMBL3860060, “Discovery and Optimization of 1-Phenoxy-2-aminoindanes as Potent, Selective, and Orally Bioavailable Inhibitors of the Na+/H+ Exchanger Type 3 (NHE3)” (J Med Chem, 2016)
